Laboratory results taken from ChEMBL document CHEMBL3272352, “Ergoline congeners as potential inhibitors of prolactin release. 2” (1976).

Test system: Rattus norvegicus
Test: Inhibition of prolactin secretion in rat assessed as serum prolactin level at 1 mg, ip after 1 hr by radioimmunoassay relative to control

| Compound | inhibition (INH) [%] |
| --- | --- |
| CN(C)C1CCc2c(ccc(O)c2O)C1 (stereo not drawn) | 68 |
| CNC1CCc2c(OC)ccc(OC)c2C1 (stereo not drawn) | 5 |
| COc1ccc(OC)c2c1CCC(N)C2 (stereo not drawn) | 3 |
| CCN(CC)C(=O)CCN(C)CCc1cc(OC)c(C)cc1OC | 10 |
| CN(CCCC#N)C1CCc2ccccc2C1 (stereo not drawn) | 24 |
| COc1ccc(OC)c2c1CCC(N(C)C)C2.Cl (stereo not drawn) | -3 |
| Br.COc1ccc(OC)c2c1CCC(N(C)CCCC#N)C2 (stereo not drawn) | -4 |
| Br.NC1CCc2c(O)ccc(O)c2C1 (stereo not drawn) | -9 |
| Br.CNC1CCc2c(O)ccc(O)c2C1 (stereo not drawn) | -19 |
| Br.CN(C)C1CCc2c(O)ccc(O)c2C1 (stereo not drawn) | 25 |
| Br.CN(CCCC#N)CCc1c[nH]c2ccccc12 | 12 |
| CN1CCc2cccc3c2[C@H]1Cc1ccc(O)c(O)c1-3 [APOMORPHINE] | 29 |

Test system: Rattus norvegicus
Test: Inhibition of prolactin secretion in rat assessed as serum prolactin level at 10 ug, ip after 1 hr by radioimmunoassay relative to control
Format: functional

| Compound | inhibition (INH) [%] |
| --- | --- |
| CC(C)[C@H]1C(=O)N2CCC[C@H]2[C@]2(O)O[C@](NC(=O)[C@@H]3C=C4c5cccc6[nH]cc(c56)C[C@H]4N(C)C3)(C(C)C)C(=O)N12 [ERGOCORNINE] | 60 |
